In US9850283B2, “Macrocyclic inhibitors of the PD-1/PD-L1 and CD80(B7-1)/PD-L1 protein/protein interactions” (BRISTOL-MYERS SQUIBB COMPANY, priority 2013, dated 2017):
Positions of bridges follow the written chain, without caps; N, C: chain ends. Non-standard residues stand in square brackets, D forms with d. Residues, ends and D or L forms follow the SMILES beside them. Bta = N[C@@H](Cc1csc2ccccc12)C(=O)O; Hyp = O=C(O)[C@@H]1C[C@@H](O)CN1; NMeNle = CCCC[C@H](NC)C(=O)O; NMeA = CN[C@@H](C)C(=O)O; Dab = NCC[C@H](N)C(=O)O; Dap = NC[C@H](N)C(=O)O

Columns and labels:
Human PD-L1/PD-1 = biological target: T1, Human PD-L1/PD-1 (Homo sapiens, UniProt Q9NZQ7); test: HTRF PD-1-Ig/PD-L1-His binding assay (human PD-L1); conditions: cluster symbol; read-out: HTRF IC50 cluster
T1 construct: made in house; host or cells: HEK293T
T1 sequence (Q9NZQ7 with tags, fused parts or gaps): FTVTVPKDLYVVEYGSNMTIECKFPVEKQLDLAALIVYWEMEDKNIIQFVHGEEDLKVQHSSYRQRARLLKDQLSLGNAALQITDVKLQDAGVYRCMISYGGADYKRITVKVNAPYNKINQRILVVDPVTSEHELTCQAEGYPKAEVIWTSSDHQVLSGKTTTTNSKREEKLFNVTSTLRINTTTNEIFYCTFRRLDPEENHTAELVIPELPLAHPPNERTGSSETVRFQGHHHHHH
Method in brief: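 Soluble Fc-fused PD-1 and His-tagged PD-L1 (truncated before the transmembrane region) were combined in dPBS with 0.1% (w/v) BSA and 0.05% (v/v) Tween-20. Binding was read by HTRF using europium cryptate anti-Ig antibody (1 nM final) and APC anti-His antibody (20 nM final).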

[1] = biological target: T2, LK35.2-hPD-L1 cells / PE-labeled PD-1-Ig (Homo sapiens, UniProt Q9NZQ7); test: LK35.2-hPD-L1 cell binding high-content screening assay; type: cell-based; conditions: cell binding assay, cell line not given; cluster symbol; read-out: CBA IC50 cluster
T2 construct: expressed in transfected cells; host or cells: LK35.2 mouse B cell line
T2 sequence (Q9NZQ7 19-290): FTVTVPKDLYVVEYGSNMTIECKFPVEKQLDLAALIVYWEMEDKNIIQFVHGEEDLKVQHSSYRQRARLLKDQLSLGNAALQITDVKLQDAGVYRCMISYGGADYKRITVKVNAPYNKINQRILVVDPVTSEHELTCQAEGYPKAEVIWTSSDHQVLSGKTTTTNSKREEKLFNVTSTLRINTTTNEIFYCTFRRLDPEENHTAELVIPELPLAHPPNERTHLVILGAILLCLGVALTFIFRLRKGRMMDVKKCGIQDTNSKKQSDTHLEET
Method in brief: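 Readout: high-content imaging of PE-PD-1-Ig bound to LK35.2-hPD-L1 cells. Cells plated overnight (RPMI/10% FCS); compound + 1 nM PE-PD-1-Ig, 1 h, 37 °C; 3× dPBS wash before imaging.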

Compound | IC50 (Human PD-L1/PD-1) | IC50 [1]
CCCC[C@H]1C(=O)N(C)[C@@H](CCCC)C(=O)N[C@@H](CC(C)C)C(=O)N[C@H](C(=O)NCC(N)=O)CSCC(=O)N[C@@H](Cc2ccc(O)cc2)C(=O)N(C)[C@@H](C)C(=O)N[C@@H](CC(N)=O)C(=O)N2CCC[C@H]2C(=O)N[C@@H](Cc2cnc[nH]2)C(=O)N[C@@H](CCC(=O)O)C(=O)N2C[C@H](O)C[C@H]2C(=O)N[C@@H](Cc2csc3ccccc23)C(=O)N[C@@H](CCN)C(=O)N[C@@H](Cc2c[nH]c3ccccc23)C(=O)N1C [Example 5051] ({CH2CO}-Y[NMeA]NPHE[Hyp][Bta][Dab]W[NMeNle][NMeNle]LCG-NH2; thioether N-14) | > 30.5 nM | > 74.3 nM
CCCC[C@H]1C(=O)N(C)[C@@H](CCCC)C(=O)N[C@@H](CCCNC(=N)N)C(=O)N[C@H](C(=O)NCC(N)=O)CSCC(=O)N[C@@H](Cc2ccc(O)cc2)C(=O)N(C)[C@@H](C)C(=O)N[C@@H](CC(N)=O)C(=O)N2CCC[C@H]2C(=O)N[C@@H](Cc2cnc[nH]2)C(=O)N[C@@H](CCC(=O)O)C(=O)N2C[C@H](O)C[C@H]2C(=O)N[C@@H](Cc2csc3ccccc23)C(=O)N[C@@H](CCN)C(=O)N[C@@H](Cc2c[nH]c3ccccc23)C(=O)N1C [Example 5052] ({CH2CO}-Y[NMeA]NPHE[Hyp][Bta][Dab]W[NMeNle][NMeNle]RCG-NH2; thioether N-14) | > 30.5 nM | > 74.3 nM
CCCC[C@H]1C(=O)N(C)[C@@H](CCCC)C(=O)N[C@@H](CCN)C(=O)N[C@H](C(=O)NCC(N)=O)CSCC(=O)N[C@@H](Cc2ccc(O)cc2)C(=O)N(C)[C@@H](C)C(=O)N[C@@H](CC(N)=O)C(=O)N2CCC[C@H]2C(=O)N[C@@H](Cc2cnc[nH]2)C(=O)N[C@@H](CCC(=O)O)C(=O)N2C[C@H](O)C[C@H]2C(=O)N[C@@H](Cc2csc3ccccc23)C(=O)N[C@@H](C)C(=O)N[C@@H](Cc2c[nH]c3ccccc23)C(=O)N1C [Example 5053] ({CH2CO}-Y[NMeA]NPHE[Hyp][Bta]AW[NMeNle][NMeNle][Dab]CG-NH2; thioether N-14) | > 30.5 nM | > 74.3 nM
CCCC[C@H]1C(=O)N(C)[C@@H](CCCC)C(=O)N[C@@H](CCN)C(=O)N[C@H](C(=O)NCC(N)=O)CSCC(=O)N[C@@H](Cc2ccc(O)cc2)C(=O)N(C)[C@@H](C)C(=O)N[C@@H](CC(N)=O)C(=O)N2CCC[C@H]2C(=O)N[C@@H](Cc2cnc[nH]2)C(=O)N[C@@H](CCC(=O)O)C(=O)N2C[C@H](O)C[C@H]2C(=O)N[C@@H](Cc2csc3ccccc23)C(=O)N[C@@H](CO)C(=O)N[C@@H](Cc2c[nH]c3ccccc23)C(=O)N1C [Example 5054] ({CH2CO}-Y[NMeA]NPHE[Hyp][Bta]SW[NMeNle][NMeNle][Dab]CG-NH2; thioether N-14) | > 30.5 nM | > 74.3 nM
CCCC[C@H]1C(=O)N(C)[C@@H](CCCC)C(=O)N[C@@H](CCN)C(=O)N[C@H](C(=O)NCC(N)=O)CSCC(=O)N[C@@H](Cc2ccc(O)cc2)C(=O)N(C)[C@@H](C)C(=O)N[C@@H](CC(N)=O)C(=O)N2CCC[C@H]2C(=O)N[C@@H](Cc2cnc[nH]2)C(=O)N[C@@H](CCC(=O)O)C(=O)N2C[C@H](O)C[C@H]2C(=O)N[C@@H](Cc2csc3ccccc23)C(=O)N[C@@H](CCN)C(=O)N[C@@H](Cc2c[nH]c3ccccc23)C(=O)N1C [Example 5055] ({CH2CO}-Y[NMeA]NPHE[Hyp][Bta][Dab]W[NMeNle][NMeNle][Dab]CG-NH2; thioether N-14) | > 30.5 nM | > 74.3 nM
CCCC[C@H]1C(=O)N(C)[C@@H](CCCC)C(=O)N[C@@H](CCN)C(=O)N[C@H](C(=O)NCC(N)=O)CSCC(=O)N[C@@H](Cc2ccc(O)cc2)C(=O)N(C)[C@@H](C)C(=O)N[C@@H](CC(N)=O)C(=O)N2CCC[C@H]2C(=O)N[C@@H](Cc2cnc[nH]2)C(=O)N[C@@H](CCC(N)=O)C(=O)N2C[C@H](O)C[C@H]2C(=O)N[C@@H](Cc2csc3ccccc23)C(=O)N[C@@H](CCN)C(=O)N[C@@H](Cc2c[nH]c3ccccc23)C(=O)N1C [Example 5056] ({CH2CO}-Y[NMeA]NPHQ[Hyp][Bta][Dab]W[NMeNle][NMeNle][Dab]CG-NH2; thioether N-14) | > 30.5 nM | > 74.3 nM

Continued, values first:

IC50 (Human PD-L1/PD-1) | IC50 [1] | Compound
0.385 to 6.74 nM | 0.158 to 4.71 nM | CCCC[C@H]1C(=O)N(C)[C@@H](CCCC)C(=O)N[C@@H](CCN)C(=O)N[C@H](C(=O)NCC(N)=O)CSCC(=O)N[C@@H](Cc2ccc(O)cc2)C(=O)N(C)[C@@H](C)C(=O)N[C@@H](CC(=O)O)C(=O)N2CCC[C@H]2C(=O)N[C@@H](Cc2cnc[nH]2)C(=O)N[C@@H](CCC(N)=O)C(=O)N2C[C@H](O)C[C@H]2C(=O)N[C@@H](Cc2c[nH]c3ccccc23)C(=O)N[C@@H](CO)C(=O)N[C@@H](Cc2c[nH]c3ccccc23)C(=O)N1C [Example 5045] ({CH2CO}-Y[NMeA]DPHQ[Hyp]WSW[NMeNle][NMeNle][Dab]CG-NH2; thioether N-14)
0.385 to 6.74 nM | > 74.3 nM | CCCC[C@H]1C(=O)N(C)[C@@H](CCCC)C(=O)N[C@@H](CCN)C(=O)N[C@H](C(=O)NCC(N)=O)CSCC(=O)N[C@@H](Cc2ccc(O)cc2)C(=O)N(C)[C@@H](C)C(=O)N[C@@H](CC(=O)O)C(=O)N2CCC[C@H]2C(=O)N[C@@H](Cc2cnc[nH]2)C(=O)N[C@@H](CCC(N)=O)C(=O)N2C[C@H](O)C[C@H]2C(=O)N[C@@H](Cc2c[nH]c3ccccc23)C(=O)N[C@@H](CCN)C(=O)N[C@@H](Cc2c[nH]c3ccccc23)C(=O)N1C [Example 5046] ({CH2CO}-Y[NMeA]DPHQ[Hyp]W[Dab]W[NMeNle][NMeNle][Dab]CG-NH2; thioether N-14)
6.76 to 30.3 nM | 4.78 to 72.9 nM | CCCC[C@H]1C(=O)N(C)[C@@H](CCCC)C(=O)N[C@@H](C)C(=O)N[C@H](C(=O)NCC(N)=O)CSCC(=O)N[C@@H](Cc2ccc(O)cc2)C(=O)N(C)[C@@H](C)C(=O)N[C@@H](CC(N)=O)C(=O)N2CCC[C@H]2C(=O)N[C@@H](Cc2cnc[nH]2)C(=O)N[C@@H](CCC(N)=O)C(=O)N2C[C@H](O)C[C@H]2C(=O)N[C@@H](Cc2c[nH]c3ccccc23)C(=O)N[C@@H](CO)C(=O)N[C@@H](Cc2c[nH]c3ccccc23)C(=O)N1C [Example 5047]
6.76 to 30.3 nM | 4.78 to 72.9 nM | CCCC[C@H]1C(=O)N(C)[C@@H](CCCC)C(=O)N[C@@H](CCCNC(=N)N)C(=O)N[C@H](C(=O)NCC(N)=O)CSCC(=O)N[C@@H](Cc2ccc(O)cc2)C(=O)N(C)[C@@H](C)C(=O)N[C@@H](CC(N)=O)C(=O)N2CCC[C@H]2C(=O)N[C@@H](CN)C(=O)N[C@@H](CC(C)C)C(=O)N2C[C@H](O)C[C@H]2C(=O)N[C@@H](Cc2c[nH]c3ccccc23)C(=O)N[C@@H](CC(=O)O)C(=O)N[C@@H](Cc2c[nH]c3ccccc23)C(=O)N1C [Example 5057] ({CH2CO}-Y[NMeA]NP[Dap]L[Hyp]WDW[NMeNle][NMeNle]RCG-NH2; thioether N-14)
0.385 to 6.74 nM | 4.78 to 72.9 nM | CCCC[C@H]1C(=O)N(C)[C@@H](CCCC)C(=O)N[C@@H](CCCNC(=N)N)C(=O)N[C@H](C(=O)NCC(N)=O)CSCC(=O)N[C@@H](Cc2ccc(O)cc2)C(=O)N(C)[C@@H](C)C(=O)N[C@@H](CC(N)=O)C(=O)N2CCC[C@H]2C(=O)N[C@@H](CN)C(=O)N[C@@H](CC(C)C)C(=O)N2C[C@H](O)C[C@H]2C(=O)N[C@@H](Cc2c[nH]c3ccccc23)C(=O)N[C@@H](CCC(=O)O)C(=O)N[C@@H](Cc2c[nH]c3ccccc23)C(=O)N1C [Example 5058] ({CH2CO}-Y[NMeA]NP[Dap]L[Hyp]WEW[NMeNle][NMeNle]RCG-NH2; thioether N-14)
0.385 to 6.74 nM | 4.78 to 72.9 nM | CCCC[C@H]1C(=O)N(C)[C@@H](CCCC)C(=O)N[C@@H](CN)C(=O)N[C@H](C(=O)NCC(N)=O)CSCC(=O)N[C@@H](Cc2ccc(O)cc2)C(=O)N(C)[C@@H](C)C(=O)N[C@@H](CC(N)=O)C(=O)N2CCC[C@H]2C(=O)N[C@@H](CN)C(=O)N[C@@H](CC(C)C)C(=O)N2C[C@H](O)C[C@H]2C(=O)N[C@@H](Cc2c[nH]c3ccccc23)C(=O)N[C@@H](CCN)C(=O)N[C@@H](Cc2c[nH]c3ccccc23)C(=O)N1C [Example 5059] ({CH2CO}-Y[NMeA]NP[Dap]L[Hyp]W[Dab]W[NMeNle][NMeNle][Dap]CG-NH2; thioether N-14)
0.385 to 6.74 nM | 4.78 to 72.9 nM | CCCC[C@H]1C(=O)N(C)[C@@H](CCCC)C(=O)N[C@@H](CN)C(=O)N[C@H](C(=O)NCC(N)=O)CSCC(=O)N[C@@H](Cc2ccc(O)cc2)C(=O)N(C)[C@@H](C)C(=O)N[C@@H](CC(N)=O)C(=O)N2CCC[C@H]2C(=O)N[C@@H](CN)C(=O)N[C@@H](CCC(=O)O)C(=O)N2C[C@H](O)C[C@H]2C(=O)N[C@@H](Cc2c[nH]c3ccccc23)C(=O)N[C@@H](CCN)C(=O)N[C@@H](Cc2c[nH]c3ccccc23)C(=O)N1C [Example 5060] ({CH2CO}-Y[NMeA]NP[Dap]E[Hyp]W[Dab]W[NMeNle][NMeNle][Dap]CG-NH2; thioether N-14)
0.385 to 6.74 nM | 0.158 to 4.71 nM | CCCC[C@H]1C(=O)N(C)[C@@H](CCCC)C(=O)N[C@@H](CN)C(=O)N[C@H](C(=O)NCC(N)=O)CSCC(=O)N[C@@H](Cc2ccc(O)cc2)C(=O)N(C)[C@@H](C)C(=O)N[C@@H](CC(N)=O)C(=O)N2CCC[C@H]2C(=O)N[C@@H](CN)C(=O)N[C@@H](CCC(=O)O)C(=O)N2C[C@H](O)C[C@H]2C(=O)N[C@@H](Cc2c[nH]c3ccccc23)C(=O)N[C@@H](CO)C(=O)N[C@@H](Cc2c[nH]c3ccccc23)C(=O)N1C [Example 5061] ({CH2CO}-Y[NMeA]NP[Dap]E[Hyp]WSW[NMeNle][NMeNle][Dap]CG-NH2; thioether N-14)
